Experimental data taken from US11701376B2, “Nutritional compositions comprising human milk oligosaccharides and nucleotides and uses thereof for treating and/or preventing enteric viral infection” (priority 2010, dated 2023).

Columns and labels:
[1] = test system: respiratory syncytial virus (RSV); assay: In vitro inhibition of viral infectivity, RSV (Example 46); format: cell-based; conditions: co-incubation of virus with HMO at 1 or 10 mg/mL
Description: In this Example, the effect of purified human milk oligosaccharides (HMO) on in vitro inhibition of viral infectivity is analyzed.
Samples are prepared by co-incubation of a uniform virus dose of from about 500 units/mL to about 1,000 units/mL of one of three respiratory viruses: (1) respiratory syncytial virus (RSV); (2) human parainfluenza virus (HPIV3); or (3) H1N1 influenza virus with one of the following HMOs: (1) 3′-sialyllactose (3′SL); (2) 6′-sialyllactose (6′SL); (3) 3′-fucosyllactose (3′FL); (4) 2′-fucosyllactose (2′FL); (5) lacto-N-neotetraose (LNnT); or (6) sialic acid (SA). The HMOs are added at concentrations of either 1 mg/mL or 10 mg/mL.

H1N1 influenza virus [2] = format: cell-based; conditions: for IC50 (mg HMO/mL) H1N1 Influenza: co-incubation of virus with HMO at 1 or 10 mg/mL
[3] = test system: interferon-inducible protein 10 (IP-10); assay: IP-10 in supernatants of RSV-infected peripheral blood mononuclear cells (Example 49); format: cell-based, Human; conditions: for IP-10 in virus-infected variables, both donors: RSV MOI 0.1, 0.1-0.5 mg/mL (LNnT 0.1-1 mg/mL); for IP-10 level relative to uninfected controls: RSV-infected PBMC; for dampening virus-induced inflammation as measured by a decrease in IP-10, comparison: compared with 3′SL; for reducing inflammation caused by RSV: pretreatment for 24 hours
Description: (§1) Specifically, either 3′SL or 6′SL is added, at concentrations of 0.1 mg/mL, 0.2 mg/mL, or 0.5 mg/mL to fresh peripheral blood mononuclear cells and incubated at 37° C. in 5% CO2 to pretreat the cells for approximately 24 hours. LNnT is added, at concentrations of 0.1 mg/mL, 0.2 mg/mL, or 1 mg/mL to fresh peripheral blood mononuclear cells and incubated at 37° C. in 5% CO2 to pretreat the cells for approximately 24 hours. Lactose is included as a carbohydrate control. Matched endotoxin unit concentration controls are included to allow differentiation of ingredient effects from inherent low levels of endotoxin. Some variables are then incubated with RSV at a multiplicity of infection (MOI) of 0.1 for approximately 1 hour at 37° C. in 5% in CO2. Uninfected control variables are incubated with medium for approximately 1 hour at 37° C. in 5% CO2. Supernatants are collected at 24 and 48 hours post-infection.
(§2) Cytokines are measured in supernatants for each variable at 24 and 48 hours to assess the effects of HMOs on the early immune response to RSV. Cytokines are measured using custom Bio-Plex Human cytokine kits from Bio-Rad. Results for interferon-inducible protein 10 (IP-10, also known as CXCL 10) are shown in FIGS. 3 and 4 for 3′SL and 6′SL, and in FIGS. 5 and 6 for LNnT. IP-10 is a CXC chemokine that attracts, binds to and activates the CXCR3 receptor on natural killer cells and memory T cells. IP-10 is expressed by monocytes and a number of other cells, and is induced by interferon. A positive correlation exists between RSV clinical disease severity in children (as measured by: length of hospital stay, fever, and number of days supplemental O2 is required) and serum IP-10. Therefore, a decrease in IP-10 signals a decrease in severity of RSV disease experienced.

interleukin 10 (IL-10) = assay: IL-10 in supernatants of peripheral blood mononuclear cells with or without RSV (Example 49); format: cell-based, Human; conditions: in the presence or absence of RSV
Description: as §1
Cytokines are measured in supernatants for each variable at 24 and 48 hours to assess the effects of HMOs on the early immune response to RSV. Cytokines are measured using custom Bio-Plex Human cytokine kits from Bio-Rad. […] A positive correlation exists between RSV clinical disease severity in children (as measured by: length of hospital stay, fever, and number of days supplemental O2 is required) and serum IP-10. […]

[4] = test system: monocyte-derived cytokines; assay: Monocyte-derived cytokines in peripheral blood mononuclear cells with or without RSV (Example 49); format: cell-based, Human
Description: as §1, §2

rotavirus = assay: NSP4 mRNA expression in rotavirus-treated ileal loops of piglets (Example 50); format: in vivo; conditions: HMO about 2 mg/mL plus rotavirus, 6 hours, vs RV and media
Description: Specifically, HMO and nucleotide treatment within the ileal lumen of both healthy and acutely rotavirus-infected piglets is analyzed.
Two groups of piglets (both n=9) are fed from age 48 hours to age 21 days either a low nucleotide formula comprising about 72 mg/L of a nucleotide mixture or a high nucleotide formula comprising about 320 mg/L of a nucleotide mixture.
At day 21, a midline laparotomy is performed and six loops of ilium are isolated in situ. Each loop is about 10 cm long and is followed by an inter-loop segment of about 2 cm. […]
The following treatments are injected into the loops: media; LNnT; an acidic HMO mixture comprising about 40 wt % 6′SL, about 10 wt % 3′SL, and about 50 wt % sialic acid; media and rotavirus; LNnT and rotavirus; and the acidic HMO mixture comprising about 40 wt % 6′SL, about 10 wt % 3′SL, and about 50 wt % sialic acid and rotavirus. […] Each loop is treated for 6 hours, and post-treatment reverse transcriptase products from ilium mucosal cells are analyzed by quantitative real-time PCR in TaqMan gene expression assays of the target genes NSP4, IL-8, and TNF-α. […] The expression levels of genes of interest are standardized to RPL19 mRNA and expressed as fold differences which correspond to a ratio to the mean value for the control group.

[5] = test system: human parainfluenza virus (HPIV3); format: cell-based; conditions: co-incubation of virus with HMO at 1 or 10 mg/mL
H1N1 influenza virus [6] = format: cell-based; conditions: HMO at 10 mg/mL, MDCK cells, FIG. 1
[7] = in the presence or absence of the virus

CC(=O)N[C@H]1[C@H](O[C@H]2[C@@H](O)[C@@H](CO)O[C@@H](O[C@H]3[C@H](O)[C@@H](O)C(O)O[C@@H]3CO)[C@@H]2O)O[C@H](CO)[C@@H](O[C@@H]2O[C@H](CO)[C@H](O)[C@H](O)[C@H]2O)[C@@H]1O (mixture of isomers) [LNnT, lacto-N-neotetraose]
IC50 (mg HMO/mL) RSV [1]: >10 mg HMO/mL | IC50 (mg HMO/mL) H1N1 Influenza (H1N1 influenza virus [2]): >10 mg HMO/mL | IP-10 in virus-infected variables, both donors ([3]; 24 hours pretreatment): clearly downregulates IP-10 | IP-10 level relative to uninfected controls [3]: reduce IP-10 to levels found in uninfected controls | dampening virus-induced inflammation as measured by a decrease in IP-10, comparison [3]: more effective than 3′SL | reducing inflammation caused by RSV [3]: effective in reducing inflammation caused by RSV | IL-10 concentration (interleukin 10 (IL-10)): increases IL-10 concentration in a dose-dependent manner | immunomodulation, production of monocyte-derived cytokines [4, 7]: immunomodulatory | NSP4 expression (rotavirus; high nucleotide formula fed group (about 320 mg/L)): reduced NSP4 expression | NSP4 expression (rotavirus; low nucleotide formula fed group (about 72 mg/L)): reduced NSP4 expression

CC(=O)N[C@H]1[C@H]([C@H](O)[C@H](O)CO)O[C@@](O[C@H]2[C@@H](O)[C@@H](CO)O[C@@H](O[C@H]3[C@H](O)[C@@H](O)C(O)O[C@@H]3CO)[C@@H]2O)(C(=O)O)C[C@@H]1O (some centres unmarked) [3′SL, 3′-sialyllactose]
IC50 (mg HMO/mL) RSV [1]: >10 mg HMO/mL | IC50 (mg HMO/mL) HPIV3 [5]: >10 mg HMO/mL | anti-viral activity, H1N1 influenza virus (H1N1 influenza virus [2]; HMO at 1 mg/mL): inhibited | IC50 (mg HMO/mL) H1N1 Influenza (H1N1 influenza virus [2]): ~5 mg HMO/mL | IP-10 in virus-infected variables, both donors ([3]; 24 hours pretreatment): dampen RSV-induced IP-10 | RSV-induced IP-10, Donor B ([3]; Donor B, 24 hours pretreatment, RSV MOI 0.1): not effective | RSV-induced IP-10, Donor E ([3]; Donor E, 24 hours pretreatment, RSV MOI 0.1): downregulates RSV-induced IP-10 | reducing inflammation caused by RSV [3]: effective in reducing inflammation caused by RSV | immunomodulation, production of monocyte-derived cytokines [4, 7]: immunomodulatory

CC(=O)N[C@H]1[C@H]([C@H](O)[C@H](O)CO)O[C@@](OC[C@H]2O[C@@H](O[C@H]3[C@H](O)[C@@H](O)[C@H](O)O[C@@H]3CO)[C@H](O)[C@@H](O)[C@H]2O)(C(=O)O)C[C@@H]1O [6′SL, 6′-sialyllactose]
IC50 (mg HMO/mL) RSV [1]: >10 mg HMO/mL | IC50 (mg HMO/mL) HPIV3 [5]: >10 mg HMO/mL | IC50 (mg HMO/mL) H1N1 Influenza (H1N1 influenza virus [2]): ~10 mg HMO/mL | inhibition of virus infectivity (H1N1 influenza virus [6]): approximately 60% | IP-10 in virus-infected variables, both donors ([3]; 24 hours pretreatment): clearly downregulates IP-10 | IP-10 level relative to uninfected controls [3]: reduce IP-10 to levels found in uninfected controls | dampening virus-induced inflammation as measured by a decrease in IP-10, comparison [3]: more effective than 3′SL | reducing inflammation caused by RSV [3]: effective in reducing inflammation caused by RSV | IL-10 concentration (interleukin 10 (IL-10)): increases interleukin 10 (IL-10) concentration in a dose-dependent manner | immunomodulation, production of monocyte-derived cytokines ([4]; in the absence of the virus): immunomodulatory
